This is an account of results in patent US20210263015A1, “MEASUREMENT METHOD” (priority 2018, published 2021).

Common to all, as to assay type: cell-based
Experiment [1] concerns spinal motion neuron derived from human iPS cells.
In experiment [2] the test system is Cerebral cortex neurons derived from human iPS cells. The experiment can be described thus: Neural activity propagation in neural network of nerve cell device on MEA (picrotoxin), cerebral cortex neurons. As to conditions: picrotoxin 0.1-10 μm; cerebral cortex neurons seeded at 8×10^5 or 24×10^5 cells/cm^2; relative to vehicle (DMSO). The protocol:
(§1) FIG. 4 is a diagram showing the results obtained by measuring the effect of picrotoxin by changing its concentration on the propagation speed of action potential in a neural network included in a nerve cell device having a different cell seeding density. As nerve cells, XCL-1 neurons (Xcell Science, US) were seeded at density of 3×10^5 cells/cm^2 (A) and 9×10^5 cells/cm^2 (B) or cerebral cortex neurons derived from human iPS cells (Axol Bioscience, UK) were seeded at density of 8x10^5 cells/cm^2 (C) and 24×10^5 cells/cm^2 (D) and cultured for 6 weeks. The concentrations of picrotoxin were 0.1, 0.3, 1, 3 and 10 μM. The results are relative values in which the propagation speed of action potential in case of the addition of vehicle (DMSO, a solvent in the drug) is taken as 100, and indicated by the average ±standard error (A, n=3; B, n=6; C, n=2; D, n=4).
(§2) An oriented PS fiber sheet obtained by mounting a stainless steel circular frame produced in Example 1 was hydrophilized by plasma treatment using a desktop plasma treatment apparatus (STREX Inc.), and then coated with poly-D-lysine and laminin. […] The nerve action potential was determined.

Experiment [3] has as its system Nerve cells derived from human iPS cells (XCL-1 neuron). In words: Neural activity propagation in neural network of nerve cell device on MEA (picrotoxin), XCL-1 neurons. As to conditions: picrotoxin 0.1-10 μm; XCL-1 neurons seeded at 3×10^5 or 9×10^5 cells/cm^2; relative to vehicle (DMSO). The protocol:
as §1, §2

In experiment [4] the test system is Cerebral cortex neurons derived from human iPS cells. The experiment can be described thus: Neural activity propagation in neural network of nerve cell device on MEA (4-AP). The text has this: FIG. 3 is a diagram showing the results of measuring by MEA (16 channels) the effect of 4-aminopyridines (4-AP) on the propagation speed of action potential in a neural network included in a nerve cell device. (A) is a raster plot diagram of the electrical signal measured by MEA after the addition of DMSO (upper figure) or 4-AP (lower figure). (B) is a diagram showing the results of measuring the time taken by the action potential in a neural network from the channel number 1 of the MEA to the channel number 16 (the channel at the diagonal of the MEA) after the addition of 4-AP (0.3, 1, and 3 μM) or DMSO and before the addition of the drug. The results are relative values in which the action potential arrival time in case of before the addition of the drug is taken as 100, and indicated by the average ±standard error (n=4). The decrease in the relative value of arrival time of action potential indicates an increase in the propagation speed of the action potential.
An oriented PS fiber sheet obtained by mounting a stainless steel circular frame produced in Example 1 was hydrophilized by plasma treatment using a desktop plasma treatment apparatus (STREX Inc.), and then coated with poly-D-lysine and laminin. […] The nerve action potential and the propagation direction of the neural activity were measured. […]

Take `NC1=N[C@H](O)[C@H]2[C@H]3O[C@]4(O)O[C@@H]([C@@H](O)[C@@]2(N1)[C@@H]4O)[C@]3(O)CO` [TTX, tetrodotoxin]: the “peak time of action potential” value in experiment [1] is “delayed”.

picrotoxin: the “propagation speed of action potential, concentration dependence” value in experiment [2] and in experiment [3] was “an increase in propagation speed of a concentration-dependent action potential was observed” throughout.

As to `Nc1ccncc1` [4-AP, 4-aminopyridin], the “propagation speed of neural activity” value in experiment [4] (4-AP 3 μM, channel 1 to channel 16 of MEA, DMSO 0.14 m/sec) turned out to be 0.39 m/sec. The “propagation speed of neural activity, concentration dependence (relative action potential arrival time)” value in experiment [4] (4-AP 0.3, 1 and 3 μM, n=4) was “increase dependently with the concentration of 4-AP”.
